# Laboratory results taken from patent US20210115104A1, “AMYLIN ANALOGUES” (Zealand Pharma A/S, priority 2015, published 2021).
# *1 amine or outer side, *2 acyl side, *3 side chain or, on linkers, in order; H or OH if unused. Where a SMILES comes first, the peptide text is derived from it. Bridges are numbered along the chain shown (N, C = ends). [ ]: non-standard residue; d: D form. The star is where a group is joined. C20 diacid = O=C(O)CCCCCCCCCCCCCCCCCCC(=O)*; γGlu = O=C(O)[C@H](CCC(=O)[*:2])N[*:1]; Hyp = O=C(O)[C@@H]1C[C@@H](O)CN1; NMeI = CC[C@H](C)[C@H](NC)C(=O)O; Sar = CNCC(=O)O
# Legend:
# [1] = biological target: T1, human amylin receptor 3 (hAMYR3), hCTR2 co-expressed with hRAMP3 (Homo sapiens, UniProt O60896+P30988); test: hAMYR3 cAMP assay (AlphaScreen) in COS7 cells; format: cell-based; details: cAMP induction, COS7 cells expressing hAMYR3; Table 1; read-out: hAMYR3 EC50
# T1 construct: expressed in transfected cells
# T1 sequence (P30988 25-474): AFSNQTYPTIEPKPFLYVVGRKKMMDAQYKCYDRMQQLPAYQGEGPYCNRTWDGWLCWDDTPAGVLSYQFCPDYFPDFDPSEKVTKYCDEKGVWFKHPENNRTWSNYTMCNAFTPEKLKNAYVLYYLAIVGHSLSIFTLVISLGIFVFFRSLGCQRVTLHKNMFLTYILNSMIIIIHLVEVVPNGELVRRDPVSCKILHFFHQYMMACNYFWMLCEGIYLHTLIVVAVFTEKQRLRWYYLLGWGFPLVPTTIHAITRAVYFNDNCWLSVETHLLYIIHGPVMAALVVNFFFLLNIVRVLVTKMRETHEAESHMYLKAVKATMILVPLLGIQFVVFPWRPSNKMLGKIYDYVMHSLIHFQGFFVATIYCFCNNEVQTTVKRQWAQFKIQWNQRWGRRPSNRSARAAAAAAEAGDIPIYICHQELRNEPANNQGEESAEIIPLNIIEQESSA
# T1 sequence (O60896 24-148 partner): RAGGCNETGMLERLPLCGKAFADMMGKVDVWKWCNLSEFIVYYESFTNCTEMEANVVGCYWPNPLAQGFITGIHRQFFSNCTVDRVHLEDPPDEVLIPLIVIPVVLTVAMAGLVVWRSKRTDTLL
# Method in brief: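 EC50 values derive from 4PL curve fits of cAMP (AlphaScreen) in lysates of RAMP-naive COS7 cells stably carrying hCTR2 plus hRAMP3. Peptide dilution series were applied for 15 min at 37 °C in pH 7.4 Tyrode buffer containing 100 µM IBMX and 0.1% casein.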
# [2] = biological target: T2, human calcitonin receptor (hCTR2) (Homo sapiens, UniProt P30988); test: hCTR2 cAMP assay (AlphaScreen) in COS7 cells; format: cell-based; details: cAMP induction, COS7 cells expressing hCTR2; Table 1; read-out: hCTR2 EC50
# T2 construct: expressed in transfected cells
# T2 sequence (P30988 25-474): T1 sequence (P30988 25-474)
# Method in brief: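 cAMP induction, read by AlphaScreen after lysis, gives EC50 values via 4PL curve fitting. Peptides were applied at rising concentrations for 15 min at 37 °C, with IBMX and 0.1% casein in HEPES-buffered Tyrode pH 7.4, to COS7 cells (no endogenous RAMPs) stably expressing human CTR2.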
EC50 [1] [pM],EC50 [2] [pM],Structure (SMILES)
240,120,"CC[C@H](C)[C@@H](C(=O)N[C@@H](CC(C)C)C(=O)N[C@@H](CO)C(=O)N[C@@H](CO)C(=O)N[C@H](C(=O)N[C@@H](CCC(=O)O)C(=O)N[C@H](C(=O)NCC(=O)N[C@@H](CO)C(=O)N[C@H](C(=O)N[C@H](C(=O)N1C[C@H](O)C[C@H]1C(N)=O)[C@@H](C)O)[C@@H](C)O)C(C)C)[C@@H](C)O)N(C)C(=O)[C@H](C)NC(=O)CN(C)C(=O)[C@H](Cc1ccccc1)NC(=O)[C@H](CO)NC(=O)[C@H](CO)NC(=O)[C@H](CCCNC(=N)N)NC(=O)[C@H](CCC(N)=O)NC(=O)[C@H](CC(C)C)NC(=O)[C@H](Cc1ccccc1)NC(=O)[C@H](Cc1c[nH]cn1)NC(=O)[C@H](C)NC(=O)[C@H](CC(C)C)NC(=O)[C@H](CCCNC(=N)N)NC(=O)[C@H](CCC(N)=O)NC(=O)[C@@H](NC(=O)[C@H](C)NC(=O)[C@@H]1CSSC[C@H](NC(=O)[C@H](CCCNC(=N)N)NC(=O)CC[C@H](NC(=O)CCCCCCCCCCCCCCCCCCC(=O)O)C(=O)O)C(=O)N[C@@H](CC(N)=O)C(=O)N[C@@H]([C@@H](C)O)C(=O)N[C@@H](C)C(=O)N[C@@H]([C@@H](C)O)C(=O)N1)[C@@H](C)O [Compound 73, [19CD]-isoGlu-R-C( )-NTAT-C( )-ATQRLAHFLQRSSF-Gly(Me)-A-Ile(Me)-LSSTEVGSTT-Hyp-NH2] ({C20 diacid-γGlu}-RCNTATCATQRLAHFLQRSSF[Sar]A[NMeI]LSSTEVGSTT[Hyp]-NH2; disulfide 2-7)"
300,190,"CC[C@H](C)[C@@H](C(=O)N[C@@H](CC(C)C)C(=O)N[C@@H](CO)C(=O)N[C@@H](CO)C(=O)N[C@H](C(=O)N[C@@H](CCC(=O)O)C(=O)N[C@H](C(=O)NCC(=O)N[C@@H](CO)C(=O)N[C@@H](CC(N)=O)C(=O)N[C@H](C(=O)N1CCC[C@H]1C(N)=O)[C@@H](C)O)C(C)C)[C@@H](C)O)N(C)C(=O)[C@H](C)NC(=O)CN(C)C(=O)[C@H](Cc1ccccc1)NC(=O)[C@H](CO)NC(=O)[C@H](CO)NC(=O)[C@H](CCCNC(=N)N)NC(=O)[C@H](CCC(N)=O)NC(=O)[C@H](CC(C)C)NC(=O)[C@H](Cc1ccccc1)NC(=O)[C@H](CC(=O)O)NC(=O)[C@H](C)NC(=O)[C@H](CC(C)C)NC(=O)[C@H](CCCNC(=N)N)NC(=O)[C@H](CCC(=O)O)NC(=O)[C@@H](NC(=O)[C@H](C)NC(=O)[C@@H]1CSSC[C@H](NC(=O)[C@H](CCCNC(=N)N)NC(=O)CC[C@H](NC(=O)CCCCCCCCCCCCCCCCCCC(=O)O)C(=O)O)C(=O)N[C@@H](CC(N)=O)C(=O)N[C@@H]([C@@H](C)O)C(=O)N[C@@H](C)C(=O)N[C@@H]([C@@H](C)O)C(=O)N1)[C@@H](C)O [Compound 66, [19CD]-isoGlu-R-C( )-NTAT-C( )-ATERLADFLQRSSF-Gly(Me)-A-Ile(Me)-LSSTEVGSNTP-NH2] ({C20 diacid-γGlu}-RCNTATCATERLADFLQRSSF[Sar]A[NMeI]LSSTEVGSNTP-NH2; disulfide 2-7)"
270,350,"CC[C@H](C)[C@@H](C(=O)N[C@@H](CC(C)C)C(=O)N[C@@H](CO)C(=O)N[C@@H](CO)C(=O)N[C@H](C(=O)N[C@@H](CCC(=O)O)C(=O)N[C@H](C(=O)NCC(=O)N[C@@H](CO)C(=O)NCC(=O)N[C@H](C(=O)N1C[C@H](O)C[C@H]1C(N)=O)[C@@H](C)O)C(C)C)[C@@H](C)O)N(C)C(=O)[C@H](C)NC(=O)CN(C)C(=O)[C@H](Cc1ccccc1)NC(=O)[C@H](CO)NC(=O)[C@H](CO)NC(=O)[C@H](CCCNC(=N)N)NC(=O)[C@H](CCC(N)=O)NC(=O)[C@H](CC(C)C)NC(=O)[C@H](Cc1ccccc1)NC(=O)[C@H](Cc1c[nH]cn1)NC(=O)[C@H](C)NC(=O)[C@H](CC(C)C)NC(=O)[C@H](CCCNC(=N)N)NC(=O)[C@H](CCC(=O)O)NC(=O)[C@@H](NC(=O)[C@H](C)NC(=O)[C@@H]1CSSC[C@H](NC(=O)[C@H](CCCNC(=N)N)NC(=O)CC[C@H](NC(=O)CCCCCCCCCCCCCCCCCCC(=O)O)C(=O)O)C(=O)N2CCC[C@H]2C(=O)N[C@@H]([C@@H](C)O)C(=O)N[C@@H](C)C(=O)N[C@@H]([C@@H](C)O)C(=O)N1)[C@@H](C)O [Compound 72, [19CD]-isoGlu-R-C( )-PTAT-C( )-ATERLAHFLQRSSF-Gly(Me)-A-Ile(Me)-LSSTEVGSGT-Hyp-NH2] ({C20 diacid-γGlu}-RCPTATCATERLAHFLQRSSF[Sar]A[NMeI]LSSTEVGSGT[Hyp]-NH2; disulfide 2-7)"
140,100,"CC[C@H](C)[C@@H](C(=O)N[C@@H](CC(C)C)C(=O)N[C@@H](CO)C(=O)N[C@@H](CO)C(=O)N[C@H](C(=O)N[C@@H](CCC(=O)O)C(=O)N[C@H](C(=O)NCC(=O)N[C@@H](CO)C(=O)N[C@@H](CO)C(=O)N[C@H](C(=O)N1CCC[C@H]1C(N)=O)[C@@H](C)O)C(C)C)[C@@H](C)O)N(C)C(=O)[C@H](C)NC(=O)CN(C)C(=O)[C@H](Cc1ccccc1)NC(=O)[C@H](CO)NC(=O)[C@H](CO)NC(=O)[C@H](CCCNC(=N)N)NC(=O)[C@H](CCC(N)=O)NC(=O)[C@H](CC(C)C)NC(=O)[C@H](Cc1ccccc1)NC(=O)[C@H](Cc1c[nH]cn1)NC(=O)[C@H](C)NC(=O)[C@H](CC(C)C)NC(=O)[C@H](CCCNC(=N)N)NC(=O)[C@H](CCC(N)=O)NC(=O)[C@@H](NC(=O)[C@H](C)NC(=O)[C@@H]1CSSC[C@H](NC(=O)[C@H](CCCNC(=N)N)NC(=O)CC[C@H](NC(=O)CCCCCCCCCCCCCCCCCCC(=O)O)C(=O)O)C(=O)N[C@@H](CC(N)=O)C(=O)N[C@@H]([C@@H](C)O)C(=O)N[C@@H](C)C(=O)N[C@@H]([C@@H](C)O)C(=O)N1)[C@@H](C)O [Compound 85, [19CD]-isoGlu-R-C( )-NTAT-C( )-ATQRLAHFLQRSSF-Gly(Me)-A-Ile(Me)-LSSTEVGSSTP-NH2] ({C20 diacid-γGlu}-RCNTATCATQRLAHFLQRSSF[Sar]A[NMeI]LSSTEVGSSTP-NH2; disulfide 2-7)"

Structure (SMILES),EC50 [1] [pM],EC50 [2] [pM]
"CC[C@H](C)[C@@H](C(=O)N[C@@H](CC(C)C)C(=O)N[C@@H](CO)C(=O)N[C@@H](CO)C(=O)N[C@H](C(=O)N[C@@H](CCC(=O)O)C(=O)N[C@H](C(=O)NCC(=O)N[C@@H](CO)C(=O)N[C@@H](Cc1ccccc1)C(=O)N[C@H](C(=O)N1C[C@H](O)C[C@H]1C(N)=O)[C@@H](C)O)C(C)C)[C@@H](C)O)N(C)C(=O)[C@H](C)NC(=O)CN(C)C(=O)[C@H](Cc1ccccc1)NC(=O)[C@H](CO)NC(=O)[C@H](CO)NC(=O)[C@H](CCCNC(=N)N)NC(=O)[C@H](CC(N)=O)NC(=O)[C@H](CC(C)C)NC(=O)[C@H](Cc1ccccc1)NC(=O)[C@H](Cc1c[nH]cn1)NC(=O)[C@H](C)NC(=O)[C@H](CC(C)C)NC(=O)[C@H](CCCNC(=N)N)NC(=O)[C@H](CCC(=O)O)NC(=O)[C@@H](NC(=O)[C@H](C)NC(=O)[C@@H]1CSSC[C@H](NC(=O)[C@H](CCCNC(=N)N)NC(=O)CC[C@H](NC(=O)CCCCCCCCCCCCCCCCCCC(=O)O)C(=O)O)C(=O)NCC(=O)N[C@@H]([C@@H](C)O)C(=O)N[C@@H](C)C(=O)N[C@@H]([C@@H](C)O)C(=O)N1)[C@@H](C)O [Compound 33, [19CD]-isoGlu-R-C( )-GTAT-C( )-ATERLAHFLNRSSF-Gly(Me)-A-Ile(Me)-LSSTEVGSFT-Hyp-NH2] ({C20 diacid-γGlu}-RCGTATCATERLAHFLNRSSF[Sar]A[NMeI]LSSTEVGSFT[Hyp]-NH2; disulfide 2-7)",150,110
